This note sets out measurements from ChEMBL document CHEMBL1142249, “Identification and optimization of a novel series of [2.2.1]-oxabicyclo imide-based androgen receptor antagonists” (Bioorg Med Chem Lett, 2008).

In data set [1] the target is T1, Androgen receptor (Homo sapiens, UniProt P10275).
T1 sequence (P10275 whole entry): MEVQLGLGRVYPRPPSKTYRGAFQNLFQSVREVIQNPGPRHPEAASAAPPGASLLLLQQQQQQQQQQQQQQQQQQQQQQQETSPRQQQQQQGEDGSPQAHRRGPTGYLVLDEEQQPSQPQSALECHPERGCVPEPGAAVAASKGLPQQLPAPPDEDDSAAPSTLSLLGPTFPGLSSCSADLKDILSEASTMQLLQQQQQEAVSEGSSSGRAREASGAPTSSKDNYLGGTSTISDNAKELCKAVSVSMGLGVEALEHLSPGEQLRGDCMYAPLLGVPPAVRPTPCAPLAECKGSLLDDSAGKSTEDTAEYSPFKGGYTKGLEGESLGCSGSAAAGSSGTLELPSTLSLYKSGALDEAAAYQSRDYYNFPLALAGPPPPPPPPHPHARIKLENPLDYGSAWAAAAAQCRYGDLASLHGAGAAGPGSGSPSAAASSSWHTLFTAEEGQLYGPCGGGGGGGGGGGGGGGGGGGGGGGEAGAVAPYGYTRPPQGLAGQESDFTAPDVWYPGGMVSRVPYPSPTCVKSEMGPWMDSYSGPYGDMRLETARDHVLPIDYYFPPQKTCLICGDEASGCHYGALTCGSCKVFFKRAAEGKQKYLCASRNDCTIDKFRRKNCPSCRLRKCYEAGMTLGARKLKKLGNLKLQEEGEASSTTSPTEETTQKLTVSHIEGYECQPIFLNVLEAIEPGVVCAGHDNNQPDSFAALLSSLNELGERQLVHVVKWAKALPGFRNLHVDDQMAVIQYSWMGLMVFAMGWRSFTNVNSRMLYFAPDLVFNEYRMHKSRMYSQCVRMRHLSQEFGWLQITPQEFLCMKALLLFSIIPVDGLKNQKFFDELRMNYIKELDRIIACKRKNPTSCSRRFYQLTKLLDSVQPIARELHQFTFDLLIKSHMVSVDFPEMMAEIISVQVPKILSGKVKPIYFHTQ
As to the kind of experiment: Displacement of [3H]DHT from human androgen receptor in MDA453 cells.

The target in data set [2] is T1, Androgen receptor.
Description: Antagonist activity at human androgen receptor in MDA453 cells by alkaline phosphatase reporter gene assay
The next data set deals with Liver microsomes. Description: Metabolic stability in human liver microsome assessed per milligram of protein. Format: ADME. A general note: Liver microsomes are vesicles of endoplasmic reticulum, rich in cytochrome P450 enzymes.
Data set [3] is described as follows: Cmax in BALB/c mouse at 1.0 mmol/kg, po. In kind it is ADME, organism-based. Also on record: dose 1 mmol/kg, route oral. Particulars: in vivo.
Data set [4] is described as follows: Tmax in BALB/c mouse at 1.0 mmol/kg, po. In kind it is ADME, organism-based. Particulars: in vivo.
A short description of data set [5]: AUC (0 to 6 hrs) in BALB/c mouse at 1.0 mmol/kg, po. Also on record: dose 1 mmol/kg, time < 6 hr, route oral. Particulars: plasma. In kind it is ADME, organism-based.
Data set [6] is described as follows: Drug level in human CWR22R cells xenografted mouse plasma at 90 mg/kg, po after 24 hrs on day 60. In kind it is ADME, organism-based. Also on record: dose 90 mg/kg, route oral. Particulars: read-out: Drug uptake.
Data set [7] in a line: Drug level in human CWR22R cells xenografted mouse plasma at 10 mg/kg, po after 1 hr on day 60. In kind it is ADME, organism-based. As to conditions: read-out: Drug uptake. Set-up: dose 10 mg/kg, route oral. On the technique in general: In xenograft studies the graft and the host belong to different species.
A short description of data set [8]: Drug level in human CWR22R cells xenografted mouse plasma at 10 mg/kg, po after 24 hrs on day 60. Particulars: read-out: Drug uptake. Set-up: dose 10 mg/kg, route oral. In kind it is ADME, organism-based.
A short description of data set [9]: Drug level in human CWR22R cells xenografted mouse plasma at 90 mg/kg, po after 1 hr on day 60. Format: ADME, organism-based. Set-up: dose 90 mg/kg, route oral. Particulars: read-out: Drug uptake.
Data set [10] in a line: Drug level in human CWR22R cells xenografted mouse plasma at 50 mg/kg, po after 24 hrs on day 60. In kind it is ADME, organism-based. Set-up: dose 50 mg/kg, route oral. As to conditions: read-out: Drug uptake.
Data set [11] is described as follows: Drug level in human CWR22R cells xenografted mouse plasma at 50 mg/kg, po after 1 hr on day 60. In kind it is ADME, organism-based. Particulars: read-out: Drug uptake. Set-up: dose 50 mg/kg, route oral.

SMILES strings stand for the structures. Bounds are passed on as bounds.

The Ki is a measure of affinity in units of concentration, obtained from inhibition or displacement. The term IC50 denotes the concentration at which inhibition is half-maximal. A lower IC50 goes with inhibition by little substance. On Androgen receptor [1], `Cc1ccc(N2C(=O)[C@@H]3C4CCC(O4)[C@@H]3C2=O)cc1Cl` yielded a Ki of 486 nM. This molecule also came in with an IC50 against Androgen receptor [2] of 2290 nM.
Molecule `CC12C[C@@H](O)C(C)(O1)[C@H]1C(=O)N(c3ccc(C#N)c(I)c3)C(=O)[C@H]12` (some centres undefined) gave a Ki on Androgen receptor [1] of 2.41 nM. In addition, the Stability with Liver microsomes was found to be 0.04 mmol/min/mg. At Androgen receptor [2], this molecule came in with a concentration for half-maximal inhibition (IC50) of 19 nM.
As a reminder, the Cmax is the peak of the concentration-time curve. What is called Tmax is the time from dosing to the highest level. The AUC(0-t) is exposure summed from dosing to a finite time, without extrapolation to infinity. Lower therefore signals less exposure. In the case of `O=C1[C@@H]2C3CCC(C3)[C@@H]2C(=O)N1c1cccc(C(F)(F)F)c1`, the Ki at Androgen receptor [1] came to 360 nM. In data set [3], this molecule had a Cmax of 0.023 µM. The Tmax in data set [4] is 30 min. Moreover, inhibition on Androgen receptor [2] was half-maximal at 152 nM (IC50). Also, the AUC(0-t) at 6 h in data set [5] came to 0.056 µM·h.
`CC12CCC(C)(O1)[C@H]1C(=O)N(c3ccc([N+](=O)[O-])c4c(Br)cccc34)C(=O)[C@H]12` gave a Ki on Androgen receptor [1] of 17 nM. On Androgen receptor [2], this molecule had an IC50 of 40 nM.
Take `CC12CCC(C)(O1)[C@H]1C(=O)N(c3ccc([N+](=O)[O-])c(C(F)(F)F)c3)C(=O)[C@H]12`: the affinity at Androgen receptor [1], expressed as Ki, was 17 nM. This molecule also yielded an IC50 against Androgen receptor [2] of 11 nM.
For `Cc1cc(N2C(=O)[C@@H]3C4CCC(O4)[C@@H]3C2=O)ccc1Cl` the same measures were 77 nM and 500 nM.
The corresponding values for `CSc1cc(N2C(=O)[C@@H]3[C@H](C2=O)C2(C)CCC3(C)O2)ccc1C#N` are 3 nM and 19 nM.
Consider `CC12CCC(C)(O1)[C@H]1C(=O)N(c3c(N)ccc4ncsc34)C(=O)[C@H]12`, for which affinity at Androgen receptor [1] was put at a Ki of 17 nM. This molecule came in with an IC50 at Androgen receptor [2] of 120 nM.
For `CC12CCC(O1)[C@H]1C(=O)N(c3cccc(C(F)(F)F)c3)C(=O)[C@H]12` (some centres undefined) the same measures were 410 nM and 343 nM.
`O=C1[C@@H]2C3CCC(O3)[C@@H]2C(=O)N1c1ccc(Cl)c(Cl)c1` had a Ki on Androgen receptor [1] of 377 nM. The molecule also returned an IC50 at Androgen receptor [2] of 480 nM.
Take `CC12C[C@H](O)C(C)(O1)[C@@H]1C(=O)N(c3ccc(C#N)c(I)c3)C(=O)[C@@H]12` (some centres undefined): the results for the concentration at 24 h in data set [6] and in data set [8] were 23.6 µM and 8 µM, respectively. Also, the concentration at 1 h stood at 26 µM in data set [7] and 55.5 µM in [9]. The molecule also gave a Ki on Androgen receptor [1] of 7.18 nM. This molecule also came in with a Stability in the data set on Liver microsomes of 0.001 mmol/min/mg. Also, the IC50 against Androgen receptor [2] amounted to 10 nM.
For the molecule `CC12CCC(C)(O1)[C@H]1C(=O)N(c3ccc(C#N)c(I)c3)C(=O)[C@H]12`, the Ki on Androgen receptor [1] worked out at 1 nM. The molecule further registered a Stability in the data set with Liver microsomes of 0.8 mmol/min/mg. Also, half-maximal inhibition against Androgen receptor [2] (IC50) was put at 7 nM.
As for `O=C1[C@H]2C3CCC(C3)N2C(=O)N1c1cccc(C(F)(F)F)c1` (some centres undefined), the Ki at Androgen receptor [1] was found to be 21 nM. Also, the Cmax in data set [3] was 1.74 µM. In addition, the Tmax in [4] is 30 min. Moreover, at Androgen receptor [2], the IC50 came out at 130 nM. In data set [5], this molecule yielded an AUC(0-t) at 6 h of 11.4 µM·h.
Molecule `COc1cc(N2C(=O)[C@@H]3[C@H](C2=O)C2(C)CCC3(C)O2)ccc1-c1cnco1` had a Ki at Androgen receptor [1] of 12 nM. On Androgen receptor [2], this molecule showed a half-maximal inhibitory concentration (IC50) of 20 nM.
For `N#Cc1ccc(N2C(=O)[C@@H]3C4CCC(O4)[C@@H]3C2=O)cc1C(F)(F)F` the same measures were 1170 nM and 2860 nM.
For `O=C1[C@@H]2C3CCC(O3)[C@@H]2C(=O)N1c1cccc(C(F)(F)F)c1` the same measures were 4100 nM and 11500 nM.
For `CC12CCC(C)(O1)[C@H]1C(=O)N(c3c(N)ccc4nccn34)C(=O)[C@H]12` the same measures were 27 nM and 70 nM.
Consider `CC(O)(CS(=O)(=O)c1ccc(F)cc1)C(=O)Nc1ccc(C#N)c(C(F)(F)F)c1` (centres undefined) [BICALUTAMIDE], for which the Cmax in data set [3] came out at 110 µM. For the same molecule, the Tmax in data set [4] was found to be 30 min. Besides, the concentration at 24 h in data set [10] stood at 86 µM. Moreover, the concentration at 1 h in [11] worked out at 48.5 µM. The molecule also registered an AUC(0-t) at 6 h in [5] of 786 µM·h.
For the molecule `CC12CCC(C)(O1)[C@H]1C(=O)N(c3cc(Cl)cc(Cl)c3)C(=O)[C@H]12`, at Androgen receptor [1], the affinity corresponds to a Ki of 3 nM. Besides, the midpoint of inhibition against Androgen receptor [2], the IC50, lay at 16 nM.
The corresponding values for `CC12CCC(C)(O1)[C@H]1C(=O)N(c3cccc(C(F)(F)F)c3)C(=O)[C@H]12` are 41 nM and 36 nM.
The corresponding values for `CC(C)(C)OC(=O)N1CC2CC1[C@@H]1C(=O)N(c3ccc(C#N)c(C(F)(F)F)c3)C(=O)N21` (some centres undefined) are 40 nM and 774 nM.
For `O=C1[C@@H]2C3CCC(O3)[C@@H]2C(=O)N1c1ccc(Br)c2ccccc12` the same measures were 53 nM and 670 nM.
`O=C1[C@@H]2C3CCC(O3)[C@@H]2C(=O)N1c1ccc(Cl)c(C(F)(F)F)c1`: the affinity at Androgen receptor [1], expressed as Ki, was 1110 nM. Further, the IC50 against Androgen receptor [2] turned out to be 3310 nM.
For `CC12CCC(C)(O1)[C@H]1C(=O)N(c3ccc(C#N)n4nccc34)C(=O)[C@H]12` the same measures were 18 nM and 88 nM.
The corresponding values for `O=C1[C@@H]2C3CCC(O3)[C@@H]2C(=O)N1c1ccc(Cl)c([N+](=O)[O-])c1` are 692 nM and 1150 nM.
For `CC12CCC(C)(O1)[C@H]1C(=O)N(c3ccc(C#N)c(C(F)(F)F)c3)C(=O)[C@H]12` the same measures were 17 nM and 7 nM.
Take `O=C1[C@@H]2C3CCC(O3)[C@@H]2C(=O)N1c1ccc([N+](=O)[O-])c2ccccc12`: the Ki at Androgen receptor [1] stood at 3 nM. The Cmax in data set [3] is 100 µM. Besides, in [4], the Tmax was 30 min. The IC50 against Androgen receptor [2] was over 5000 nM. In addition, the AUC(0-t) at 6 h in [5] was 11.4 µM·h.
Regarding `O=C1[C@@H]2C3CCC(O3)[C@@H]2C(=O)N1c1ccc(I)c(Cl)c1`, affinity at Androgen receptor [1] was put at a Ki of 221 nM. The molecule further had an IC50 at Androgen receptor [2] of 350 nM.
`CC12CCC(C)(O1)[C@H]1C(=O)N(c3cnc(C#N)c(Cl)c3)C(=O)[C@H]12` came in with a Ki at Androgen receptor [1] of 4 nM. The molecule also came in with an IC50 against Androgen receptor [2] of 38 nM.
The corresponding values for `CC12CCC(C)(O1)[C@H]1C(=O)N(c3ccc(C#N)c4nsnc34)C(=O)[C@H]12` are 3 nM and 16 nM.
